# Measured values published in publication PMC8286641 (European Journal of Drug Metabolism and Pharmacokinetics, 2021).
# pIC50: −log10 of the molar value.
# Assays:
# OCT2 = conditions: read-out: IC50 OCT2; cited from earlier work
# [1] = system: organic anion transporter (OAT) 3 (SLC22A8); conditions: read-out: IC50 OAT3; cited from earlier work
# OCT1 = conditions: cited from earlier work
# MATE2-K = conditions: read-out: IC50 MATE2-K; cited from earlier work
# ENT1 = biological target: T1, ENT1 (Homo sapiens, UniProt Q99808); experiment: Inhibition of ENT1-mediated [3H]-uridine uptake in HAP1 ENT2-KO cells; format: cell-based; conditions: 10 µM TKI
# T1 sequence (Q99808 1-456): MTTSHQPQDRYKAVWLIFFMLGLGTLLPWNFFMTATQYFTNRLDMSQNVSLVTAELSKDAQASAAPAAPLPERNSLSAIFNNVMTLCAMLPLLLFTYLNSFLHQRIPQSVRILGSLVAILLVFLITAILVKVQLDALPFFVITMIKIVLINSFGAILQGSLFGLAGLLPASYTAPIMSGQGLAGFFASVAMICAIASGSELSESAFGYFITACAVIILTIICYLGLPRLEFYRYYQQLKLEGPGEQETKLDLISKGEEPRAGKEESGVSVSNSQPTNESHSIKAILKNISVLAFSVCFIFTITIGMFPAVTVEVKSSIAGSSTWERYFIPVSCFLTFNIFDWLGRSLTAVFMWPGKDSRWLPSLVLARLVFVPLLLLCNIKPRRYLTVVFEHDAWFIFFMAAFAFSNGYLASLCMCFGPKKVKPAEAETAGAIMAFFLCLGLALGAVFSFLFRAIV
# MATE1 = conditions: read-out: IC50 MATE1; cited from earlier work
smiles,measurement,setting,value
"N#CC[C@H](C1CCCC1)n1cc(-c2ncnc3[nH]ccc23)cn1 [Ruxolitinib, ruxolitinib]",pIC50,OCT2,> 5.00
same,pIC50,[1],> 5.00
same,Effect on OCT1 activity (in words),OCT1,fails to alter that of OCT1
same,pIC50,MATE2-K,> 5.00
same,% inhibition of ENT1 activity (mean ± SD),"ENT1; HAP1-ENT2 KO cells, [3H]-uridine uptake 5 min at 37 °C",34.1 ± 13.2 %
same,ENT1 inhibitor class,ENT1; HAP1 ENT2-KO cells,weak (decreased ENT1 activity by less than 35% and can thus be considered as weak ENT1 inhibitors)
same,pIC50,MATE1,> 5.00
